Results as given in paper PMC12476894, “Identification of α‑Azacyclic Acetamide-Based Inhibitors of P. falciparum Na^+ Pump (PfATP4) with Fast-Killing Asexual Blood-Stage Antimalarial Activity by Phenotypic Screening” (ACS Infectious Diseases, 2025).
Read-outs that look alike come from different tables or passages of the source.

What was measured:
[1] = system: P. falciparum Dd2 (PfDd2) parasites; experiment: 72 h SYBR Green growth inhibition, ABS P. falciparum Dd2 (Phillips Lab); assay type: cell-based, Plasmodium falciparum; details: Plasmodium falciparum
[2] = system: P. falciparum NF54^luc parasites; experiment: 72 h SYBR Green growth inhibition, PfNF54^luc; assay type: cell-based; details: Plasmodium falciparum, 72 h SYBR Green assay, read-out: PfNF54^luc EC50
[3] = system: P. falciparum NF54^luc parasites; experiment: Luciferase reporter (LR) / BRRoK assay, PfNF54^luc; assay type: cell-based, Plasmodium falciparum; details: Plasmodium falciparum, NF54, Hec50; luciferase reporter, 6 h
[4] = system: PfD10 attB; experiment: 72 h SYBR Green growth inhibition, PfD10 attB; assay type: cell-based; details: Plasmodium falciparum; 72 h SYBR Green assay
[5] = system: PfD10 attB + yDHODH; experiment: 72 h SYBR Green growth inhibition, strain expressing yeast DHODH; assay type: cell-based; details: Plasmodium falciparum, read-out: PfD10 attB + yDHODH EC50, 72 h SYBR Green assay
[6] = Human HepG2 cytotoxicity assay (CellTiter Glo); assay type: cell-based; details: HepG2 cells
[7] = in vitro; assay type: in vitro ADME; details: human liver microsomes, 1 µM compound, 0.4 mg/mL protein
[8] = system: PfDd2 parasites, 2- or 3-selected bulk cultures; experiment: EC50 of bulk cultures after rounds of resistance selection; assay type: cell-based; details: Plasmodium falciparum, read-out: bulk culture EC50
Protocol: (§1) To confirm the MOA for the α-azacyclic acetamides against P. falciparum and to obtain potential information about whether or not they bind PfATP4 at an overlapping site with that of KAE609, we undertook resistance selections using PfDd2 parasites using the published cycling drug selection method. , α-Azacyclic acetamides 2 and 3 were chosen as representative examples of the pyrrole- and indole-based series, respectively. […] Additional cycles were performed at 20 × EC50, until resistant parasites were detected based on a fold change in EC50 compared to the parental clonal Dd2 line (Table S3). Resistant parasites were detected in the 2-selections in all 4 flasks after 4 pulses and for 3-selections in 3 flasks after 5 pulses. Clonal lines were generated from each flask, and one clone per flask was selected for WGS and EC50 determination (Tables S4 and S5). WGS analysis identified two single point mutations in PfATP4 that were not present in the original clonal Dd2 parasite line (Tables and S4). P412L was found in three of four flasks containing 2-selected resistance clones, and F917L was identified in all three flasks containing 3-selected clones and in the fourth flask containing 2-selected clones (Table S4). PfATP4 mutations identified by the WGS analysis in parasite lines were verified by PCR of the pfatp4 gene, followed by Sanger sequencing (Figures S5, S6 and Table S6). An additional protein coding gene (ribosomal protein S8e) was mutated in the 2-selections. However, this mutation was identified in only one of four sequenced clones and is therefore unlikely to be related to resistance to 2 (Figure S7). All three resistant clones derived from the 3-selections harbored an identical mutation in a gene (pfcpu) encoding a conserved protein of unknown function, which was absent in the parental line (Figure S8).
(§2) Resistant Dd2 parasites were selected using a high-pressure intermittent selection protocol using a previously described method. Selections were set up using 4 flasks per compound starting with approximately 3 × 10^9 parasites per flask (80 mL per flask, 4% hematocrit, 3% parasitemia at the beginning of each pulse, mostly ring-stage parasites via previous sorbitol synchronization. Pulse 1 and 2 (48 h) were conducted at 10xEC50, and subsequent pulses were conducted at 20xEC50. Parasites cleared within 48 h under these conditions. 3-Selections used a total of 4 pulses, while 2-selections required 5 pulses before resistant parasites emerged (Table S3). Culture media was replenished daily for a week after each pulse, then every 2 days with weekly replenishment of blood. Cultures were monitored by microscopy until recrudescence. Clonal parasites were obtained from each flask by limiting dilution and maintained in drug free RPMI-1640 media prior to being analyzed for EC50 shifts. Established clonal lines were aliquoted and stored at −80 °C after suspension in Glycerolyte 57 solution (Baxter Cat no 4A7831).

[9] = system: Dd2^L350H (PfATP4^L350H); experiment: Drug susceptibility assay for cross-resistance profiling (Fidock Lab), L350H; assay type: cell-based, Plasmodium falciparum; details: Table 3 data set; for EC50: Plasmodium falciparum, DD2, 15-selected line
[10] = system: PfDd2 parasites; experiment: Resistance selection by drug pulses, time to recrudescence; assay type: cell-based, Plasmodium falciparum
Protocol: as §1, §2

[11] = system: P. falciparum NF54^luc parasites; experiment: Luciferase reporter (LR) / BRRoK assay, PfNF54^luc; assay type: cell-based; details: Plasmodium falciparum, NF54, Hec50, 72 h
[12] = system: Pf3D7 trophozoite-stage parasites, cytosolic pH (pHcyt); cell-based assay for ATP4 inhibition; experiment: P. falciparum cytosolic dose response pH assay (BCECF, with concanamycin A); details: Plasmodium falciparum, read-out: Pf3D7 pH EC50
[13] = DD2, 72 h, read-out: PfDd2 EC50

Row | Compound | EC50 [1, 13] | EC50 [2] | EC50 [3] | EC50 [4] | EC50 [5] | CC50 at 96 h [6] | microsomal CLint [7] | EC50 [9] | EC50 fold-change vs Dd2-B2, Dd2^L350H [9] | Time to Recrudescence ([10]; Pulse 1, 10×EC50, Flasks #1-4) | Time to Recrudescence ([10]; Pulse 2, 10×EC50, Flasks #1-4) | Time to Recrudescence ([10]; Pulse 3, 20×EC50, Flasks #1-4) | EC50 [11] | EC50 [12] | other results
1 | Cc1ccnc(NC(=O)Cn2cccc2-c2nc(-c3ccccc3)cs2)c1 [compound 2, N-(4-methylpyridin-2-yl)-2-(2-(4-phenylthiazol-2-yl)-1H-pyrrol-1-yl)acetamide] | 830 ± 48 nM | 720 ± 19 nM | 1100 ± 90 nM | 1200 nM | 990 nM | > 50000 nM | > 866 µL/min/mg | 1600 ± 160 nM | 4.2 fold | 8 days | 6 days | 7 days | 470 ± 51 nM | 1600 ± 950 nM | EC50 ([1]; DD2, read-out: EC50, Dd2 Parent (clone B8)): 780 nM; EC50 ([8]; 2-selected Flask 1, after Pulse 3 (20×EC50)): 570 nM; EC50 ([8]; 2-selected Flask 1, after Pulse 4 (20×EC50)): 8400 nM; EC50 ([8]; 2-selected Flask 2, after Pulse 3 (20×EC50)): 580 nM; EC50 ([8]; 2-selected Flask 2, after Pulse 4 (20×EC50)): > 10000 nM; EC50 ([8]; 2-selected Flask 3, after Pulse 3 (20×EC50)): 1100 nM; EC50 ([8]; 2-selected Flask 3, after Pulse 4 (20×EC50)): > 10000 nM; EC50 ([8]; 2-selected Flask 4, after Pulse 3 (20×EC50)): 810 nM; EC50 ([8]; 2-selected Flask 4, after Pulse 4 (20×EC50)): 6600 nM; Time to Recrudescence ([10]; Pulse 4, 20×EC50, Flasks #1-4): 3 days; Time to Recrudescence ([10]; Pulse 5, 20×EC50, Flasks #1-4, after pulse): 2 days
2 | Cc1nn(CCNC(=O)Cn2c(C)c(C#N)c3ccccc32)c(C)c1Cl [compound 3, N-(2-(4-chloro-3,5-dimethyl-1H-pyrazol-1-yl)ethyl)-2-(3-cyano-2-methyl-1H-indol-1-yl)acetamide] | 1100 ± 72 nM | 940 ± 2.7 nM | 1600 ± 71 nM | 1300 nM | 930 nM | > 50000 nM | > 866 µL/min/mg | 3400 ± 320 nM | 6.3 fold | 5 days | 4 days | 4 days | 720 ± 3.1 nM | 1500 ± 47 nM | EC50 ([1]; DD2, read-out: EC50, Dd2 Parent (clone G9)): 990 nM; EC50 ([8]; 3-selected Flask 1, after Pulse 2 (10×EC50)): 720 nM; EC50 ([8]; 3-selected Flask 1, after Pulse 3 (20×EC50)): 1200 nM; EC50 ([8]; 3-selected Flask 2, after Pulse 2 (10×EC50)): 840 nM; EC50 ([8]; 3-selected Flask 2, after Pulse 3 (20×EC50)): > 10000 nM; EC50 ([8]; 3-selected Flask 3, after Pulse 2 (10×EC50)): 1000 nM; EC50 ([8]; 3-selected Flask 3, after Pulse 3 (20×EC50)): > 10000 nM; EC50 ([8]; 3-selected Flask 4, after Pulse 2 (10×EC50)): 1100 nM; EC50 ([8]; 3-selected Flask 4, after Pulse 3 (20×EC50)): > 10000 nM; Time to Recrudescence ([10]; Pulse 4, 20×EC50, Flask #1): 6 days; Time to Recrudescence ([10]; Pulse 4, 20×EC50, Flasks 2 - 4): 2 days
